Measured values taken from patent US10294202B2, “Pyrrolidinones as herbicides” (FMC Corporation, priority 2013, dated 2019).

Assays:
ryegrass, Italian = experiment: Test A pre-/postemergence herbicide test; assay type: in vivo, Lolium multiflorum
Outline: (§1)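 Formulated compound (non-phytotoxic solvent, surfactant) sprayed pre- onto soil of seeded loam/sand pots or post- onto seedlings at 1–2 leaves; ~10 d greenhouse; 0–100 visual control rating versus untreated.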

barnyardgrass [1] = experiment: Test A pre-/postemergence herbicide test; assay type: in vivo, Echinochloa crus-galli
Outline: as §1

ducksalad = experiment: Test B flooded paddy test; assay type: in vivo, Heteranthera limosa; conditions: 500 g ai/ha, Flood; scale of 0 to 100 where 0 is no effect and 100 is complete control
Outline: (§2)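 Plants grown to 2-leaf stage; pots flooded 3 cm above soil and compound applied directly into paddy water, depth held throughout. Visual rating against untreated controls after 13 to 15 days in greenhouse, 0 (no effect) to 100 (complete control).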

pigweed = experiment: Test A pre-/postemergence herbicide test; assay type: in vivo, Amaranthus retroflexus
Outline: as §1

blackgrass = experiment: Test A postemergence herbicide test; assay type: in vivo, Alopecurus myosuroides
Outline: (§3)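 Potted in loam soil/sand blend; postemergence application at 1–2 leaf stage (2–10 cm). Greenhouse ~10 d. Visual injury vs untreated, 0–100 scale; 100 = complete control.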

sedge, umbrella = experiment: Test B flooded paddy test; assay type: in vivo, Cyperus difformis; conditions: 500 g ai/ha, Flood; scale of 0 to 100 where 0 is no effect and 100 is complete control
Outline: as §2

wheat = experiment: Test A pre-/postemergence herbicide test; assay type: in vivo, Triticum aestivum; conditions: Postemergence
Outline: as §1

barnyardgrass [2] = experiment: Test B flooded paddy test; assay type: in vivo, Echinochloa crus-galli; conditions: 500 g ai/ha, Flood; scale of 0 to 100 where 0 is no effect and 100 is complete control
Outline: as §2

kochia = experiment: Test A pre-/postemergence herbicide test; assay type: in vivo, Kochia scoparia
Outline: as §1

rice = experiment: Test B flooded paddy test; assay type: in vivo, Oryza sativa; conditions: 500 g ai/ha, Flood; scale of 0 to 100 where 0 is no effect and 100 is complete control
Outline: as §2

giant foxtail = experiment: Test A pre-/postemergence herbicide test; assay type: in vivo, Setaria faberii
Outline: as §1

galium = experiment: Test A postemergence herbicide test; assay type: in vivo, Galium aparine
Outline: as §3

corn = experiment: Test A pre-/postemergence herbicide test; assay type: in vivo, Zea mays; conditions: Postemergence
Outline: as §1

ragweed = experiment: Test A pre-/postemergence herbicide test; assay type: in vivo, Ambrosia elatior
Outline: as §1

[3] = Postemergence, 125 g ai/ha, visual rating on 0 to 100 scale (0 no effect, 100 complete control), approx. 10 days
[4] = Postemergence, 500 g ai/ha, 0 to 100 scale (0 no effect, 100 complete control)
[5] = Preemergence, 125 g ai/ha, 0 to 100 scale where 0 is no effect and 100 is complete control
[6] = Preemergence, 500 g ai/ha, visual rating on 0 to 100 scale (0 no effect, 100 complete control)
[7] = 125 g ai/ha, visual rating on 0 to 100 scale (0 no effect, 100 complete control), approx. 10 days
[8] = 500 g ai/ha, 0 to 100 scale (0 no effect, 100 complete control)

SMILES	Plant response rating, Ryegrass, Italian (ryegrass, Italian; [3])	Plant response rating, Ryegrass, Italian (ryegrass, Italian; [4])	Plant response rating, Ryegrass, Italian (ryegrass, Italian; [5])	Ryegrass, Italian plant response rating (ryegrass, Italian; [6])	Plant response rating, Barnyardgrass (barnyardgrass [1]; [3])	Plant response rating, Barnyardgrass (barnyardgrass [1]; [4])	Plant response rating, Barnyardgrass (barnyardgrass [1]; [5])	Barnyardgrass plant response rating (barnyardgrass [1]; [6])	Plant response rating, Ducksalad (ducksalad)	Plant response rating, Pigweed (pigweed; [3])	Plant response rating, Pigweed (pigweed; [4])	Plant response rating, Pigweed (pigweed; [5])	Pigweed plant response rating (pigweed; [6])	Plant response rating, Blackgrass (blackgrass; [7])	Plant response rating, Blackgrass (blackgrass; [8])	Plant response rating, Sedge, Umbrella (sedge, umbrella)	Plant response rating, Wheat (wheat; [7])	Plant response rating, Wheat (wheat; [8])	Plant response rating, Barnyardgrass (barnyardgrass [2])	Plant response rating, Kochia (kochia; [3])	other results
CC1(c2ccccc2)CNC(=O)C1C(=O)Nc1ccccc1F (stereo not drawn) [Compound 301]	0	0	0	0	0	0	0	0	0	0	0	0	0	0	0	0	0	0	0	0	Plant response rating, Kochia (kochia; [4]): 0; Plant response rating, Kochia (kochia; [5]): 0; Kochia plant response rating (kochia; [6]): 0; Plant response rating, Rice (rice): 0; Plant response rating, Foxtail, Giant (giant foxtail; [3]): 0; Plant response rating, Foxtail, Giant (giant foxtail; [4]): 0; Plant response rating, Foxtail, Giant (giant foxtail; [5]): 0; Foxtail, Giant plant response rating (giant foxtail; [6]): 0; Plant response rating, Galium (galium; [7]): 0; Plant response rating, Galium (galium; [8]): 0; Plant response rating, Corn (corn; [7]): 0; Plant response rating, Corn (corn; [8]): 0; Plant response rating, Ragweed (ragweed; [3]): 0; Plant response rating, Ragweed (ragweed; [4]): 0; Plant response rating, Ragweed (ragweed; [5]): 0; Ragweed plant response rating (ragweed; [6]): 0
O=C1NCC(c2cccc(Br)c2)C1C(=O)Nc1ccc(F)cc1F (stereo not drawn) [Compound 308]	0	0	0	0	70	70	70	80	90	0	0	0	0	50	70	0	0	20	70	0	Plant response rating, Kochia (kochia; [4]): 0; Plant response rating, Kochia (kochia; [5]): 0; Kochia plant response rating (kochia; [6]): 0; Plant response rating, Rice (rice): 0; Plant response rating, Foxtail, Giant (giant foxtail; [3]): 70; Plant response rating, Foxtail, Giant (giant foxtail; [4]): 80; Plant response rating, Foxtail, Giant (giant foxtail; [5]): 80; Foxtail, Giant plant response rating (giant foxtail; [6]): 90; Plant response rating, Galium (galium; [7]): 0; Plant response rating, Galium (galium; [8]): 0; Plant response rating, Corn (corn; [7]): 0; Plant response rating, Corn (corn; [8]): 10; Plant response rating, Ragweed (ragweed; [3]): 0; Plant response rating, Ragweed (ragweed; [4]): 0; Plant response rating, Ragweed (ragweed; [5]): 0; Ragweed plant response rating (ragweed; [6]): 0
O=C1NCC(c2cccc(C(F)(F)F)c2)C1C(=O)Nc1cccc(C(F)(F)F)c1 (stereo not drawn) [Compound 313]	0	0	0	0	20	80	50	80	0	0	0	0	0	0	0	0	0	0	60	0	Plant response rating, Kochia (kochia; [4]): 0; Plant response rating, Kochia (kochia; [5]): 0; Kochia plant response rating (kochia; [6]): 0; Plant response rating, Rice (rice): 0; Plant response rating, Foxtail, Giant (giant foxtail; [3]): 40; Plant response rating, Foxtail, Giant (giant foxtail; [4]): 70; Plant response rating, Foxtail, Giant (giant foxtail; [5]): 30; Foxtail, Giant plant response rating (giant foxtail; [6]): 80; Plant response rating, Galium (galium; [7]): 0; Plant response rating, Galium (galium; [8]): 0; Plant response rating, Corn (corn; [7]): 0; Plant response rating, Corn (corn; [8]): 0; Plant response rating, Ragweed (ragweed; [3]): 0; Plant response rating, Ragweed (ragweed; [4]): 0; Plant response rating, Ragweed (ragweed; [5]): 0; Ragweed plant response rating (ragweed; [6]): 0
O=C1NCC(c2cccc(I)c2)C1C(=O)Nc1ccccc1C(F)(F)F (stereo not drawn) [Compound 328]	0	20	0	40	30	80	40	80	35	0	0	0	0	30	40	0	0	0	0	0	Plant response rating, Kochia (kochia; [4]): 20; Plant response rating, Kochia (kochia; [5]): 0; Kochia plant response rating (kochia; [6]): 20; Plant response rating, Rice (rice): 0; Plant response rating, Foxtail, Giant (giant foxtail; [3]): 70; Plant response rating, Foxtail, Giant (giant foxtail; [4]): 80; Plant response rating, Foxtail, Giant (giant foxtail; [5]): 80; Foxtail, Giant plant response rating (giant foxtail; [6]): 90; Plant response rating, Galium (galium; [7]): 20; Plant response rating, Galium (galium; [8]): 50; Plant response rating, Corn (corn; [7]): 0; Plant response rating, Corn (corn; [8]): 0; Plant response rating, Ragweed (ragweed; [3]): 0; Plant response rating, Ragweed (ragweed; [4]): 0; Plant response rating, Ragweed (ragweed; [5]): 0; Ragweed plant response rating (ragweed; [6]): 0
